{
  "source": "patent US6756362B2",
  "about": "“Methods and compositions based on inhibition of cell invasion and fibrosis by anionic polymers” (priority 1991, dated 2004)",
  "key": {"[1]": {"test_system": "epidural fibrosis at laminectomy site, Lewis inbred rats", "experiment": "Epidural fibrosis after lumbar laminectomy in rats, gross evaluation", "assay_type": "in vivo, rat", "parameters": "scale not given here", "conditions": "Table 4; 20 mg/ml; 4 weeks post-implantation"}, "[2]": {"test_system": "dorsal root ganglia (DRG) explants", "experiment": "Stripe assay, DRG explants", "assay_type": "cell-based, chick", "parameters": "key: Bands that were completely inhibitory to cell adhesion, migration and/or invasion were evaluated as (−); those allowing limited cell adhesion, migration and/or invasion (+/−); those permissive to cell adhesion, migration and/or invasion as (+)", "conditions": "for DS-PG Effect on Adhesion, Migration and Invasion: 2 days following plating", "procedure": "Primary Explant Cultures. Dorsal root ganglia (DRGs) were obtained from E8-E9 chick embryos. The dissection was carried out in CMF-HBSS. The spinal cord was exposed and DRGs were removed and cleaned from surrounding connective tissue. DRGs were plated in DMEM/F12, 10% fetal calf serum containing 50 ng/ml nerve growth factor (NGF). The DRGs were seeded on laminin (LN, Gibco Laboratories) or poly-L-lysine (PLL, Sigma) coated dishes.\n(§1) The stripe assay was performed essentially as described by Snow et al. (1990, Exp. Neural. 309:111-130). Tissue culture Petri dishes (Falcon, 60 mm) were precoated with 0.5 ml of a mixture of 5 cm^2 section nitrocellulose (Schleicher & Schuell, Type BA 85) dissolved in 6 ml methanol, and air dried in a laminar flow hood. Cellulose filter paper (Whatman #1) was cut into 12×0.35 mm strips with a McIlwain tissue chopper (The Mickle Laboratory Engineering Co., LTD). A strip of filter paper was soaked in 20 μl of a solution of DS-PG or KS/CS-PG and LN at given concentration, blotted onto the nitrocellulose-coated dish for 30 sec. and removed. The test solution was allowed to air dry. This process was repeated several times creating clearly defined, equally spaced parallel bands of uniform width on the plates. A thin layer of 0.1 or 1 mg/ml LN was then spread evenly across the bands with a bent glass Pasteur pipet, and covered with culture medium (FIG. 1).\n(§2) Plates were seeded with cell suspensions of 2.0×10^5 cells/ml or 4-10 DRG explants. The cultures were assessed for degree of adhesion, migration and/or invasion of the DS-PG or KS/CS-PG bands over a period of up to 7 days using a Leitz Fluovert microscope.\n(§3) Bands that were completely inhibitory to cell adhesion, migration and/or invasion were evaluated as (−), those allowing limited cell adhesion, migration and/or invasion (+/−), and those permissive to cell adhesion, migration and/or invasion as (+). cell adhesion was defined as the initial interaction between the cell surface and the substratum which results in cell attachment and spreading. Cell migration was operationally defined as cell movement within the same substratum, and cell invasion was operationally defined as cell movement from one type of substratum to another type of substratum."}, "rat astrocytes (RAST)": {"test_system": "rat astrocytes (RAST)", "experiment": "Stripe assay, RAST", "assay_type": "cell-based", "parameters": "key: Bands that were completely inhibitory to cell adhesion, migration and/or invasion were evaluated as (−); those allowing limited cell adhesion, migration and/or invasion (+/−); those permissive to cell adhesion, migration and/or invasion as (+)", "conditions": "for DS-PG Effect on Adhesion, Migration and Invasion: 2 days following plating", "procedure": "Rat astrocytes (RAST) cultures were prepared from P-1-3 rat brain cortices. The cortices were stripped of connective tissue and blood vessels, cut into small pieces and dissociated in 0.5% collagenase (Gibco Laboratories) for 20 min at 37° C., followed by further dissociation in 0.25% trypsin for 15 min, and 0.04 mg/ml DNAse (Sigma) and 0.52 mg/ml soy bean trypsin inhibitor for 5 min at 37° C. The cells were subsequently mechanically dissociated by trituration with a Pastuer pipette and plated at 1.5×10^7 cells in a poly-L-lysine (PLL, Sigma) coated 75 cm^2 flask. The flask was shaken 4 hrs following plating to remove less adherent non-astrocytic oligodendrocytes and neurons.\nas §1, §2, §3"}, "[3]": {"test_system": "adult rat sciatic nerve fibroblasts (RSF)", "experiment": "Stripe assay, RSF", "assay_type": "cell-based", "parameters": "key: Bands that were completely inhibitory to cell adhesion, migration and/or invasion were evaluated as (−); those allowing limited cell adhesion, migration and/or invasion (+/−); those permissive to cell adhesion, migration and/or invasion as (+)", "conditions": "for DS-PG Effect on Adhesion, Migration and Invasion: 2 days following plating", "procedure": "Primary Cell Cultures. Primary cultures of rat meningeal fibroblasts (RMF) were obtained from P-3 rat pups. The tissue was removed from the animals and transferred to Leibovitz's L-15 with L-glutamine medium. The tissue was then cut into small pieces with a scalpel blade, enzymatically dissociated with 0.25% trypsin in Ca^2+/Mg^2+ free Hank's balanced salt solution (CMF-HBSS, Gibco Laboratories) for 20 minutes at 37° C., and mechanically triturated. The cells were rinsed with DMEM plus 10% FCS, concentrated by centrifugation and subsequently diluted in DMEM with 10% FCS for plating at 5.0×10^6 cells per 75 cm^2 flask. Adult rat sciatic nerve fibroblasts (RSF) were obtained by explantation of 1 mm sections of adult rat sciatic nerve.\nas §1, §2, §3"}, "[4]": {"test_system": "MCG-28 young immortalized mouse astrocyte", "experiment": "Stripe assay, MCG-28", "assay_type": "cell-based", "parameters": "key: Bands that were completely inhibitory to cell adhesion, migration and/or invasion were evaluated as (−); those allowing limited cell adhesion, migration and/or invasion (+/−); those permissive to cell adhesion, migration and/or invasion as (+)", "conditions": "MCG28; for DS-PG Effect on Adhesion, Migration and Invasion: 2 days following plating", "procedure": "Cell lines. Murine 3T3 fibroblast (NIH), rat C6 glioma (Paganetti et al., 1988, J. Cell Biol. 107:2281) and MCG-28 young immortalized mouse astrocyte (a murine neonatal astrocyte line immortalized with SV-40) were grown in medium composed of Dulbecco's modified Eagle medium (DMEM), 10% fetal calf serum (Gibco Laboratories), and penicillin G/streptomycin (100 units/ml, 100 μg/ml respectively, Gibco Laboratories). For the stripe assay, confluent plates were disaggregated with 0.05% trypsin, 0.53 mM EDTA (Gibco Laboratories) and seeded at 200,000 cells/ml (3 ml/plate). For the cell adhesion assays, confluent cultures were disaggregated with 0.03% EDTA and plated in a 96-well microtiter plate at 20,000-100,000 cells per well. PC12 cells, a pheochromocytoma cell line (Green L. A. & Tischler A. S., 1976, Proc. Natl. Acad. Sci. U.S.A. 73:2424), were grown in medium containing Roswell Park Memorial Institute (RPMI) medium 1640 (Gibco Laboratories), 10% horse serum, 5% fetal calf serum (FCS), and penicillin G/streptomycin (100 units/ml, 100 μg/ml respectively, Gibco Laboratories). The cells were disaggregated with 0.03% EDTA and plated in a 96-well microtiter plate at 3,000 cells per well.\nas §1, §2, §3"}, "[5]": {"conditions": "0.25 mg/ml KS/CS-PG + LN stripes"}, "[6]": {"conditions": "0.5 mg/ml KS/CS-PG + LN stripes"}, "[7]": {"conditions": "1.0 mg/ml KS/CS-PG + LN stripes"}, "[8]": {"conditions": "2.7 mg/ml KS/CS-PG + LN stripes"}, "[9]": {"conditions": "0.1 mg/ml DS-PG + 20 μg/ml LN stripes"}, "[10]": {"conditions": "0.2 mg/ml DS-PG + 20 μg/ml LN stripes"}, "[11]": {"conditions": "0.4 mg/ml DS-PG + 20 μg/ml LN stripes"}, "[12]": {"conditions": "0.8 mg/ml DS-PG + 20 μg/ml LN stripes"}},
  "data": [
    {"substance": "dextran sulfate", "values": [
      {"measurement": "TOTAL SCORE 4 WEEKS", "setting": "[1]", "result": "1.8 ± 0.9"}
    ]},
    {"substance": "keratan sulfate/chrondroitin sulfate-proteoglycans [KS/CS-PG]", "values": [
      {"measurement": "Effect of KS/CS-PG on Cell Migration", "setting": "[2]; [5]", "result": "+"},
      {"measurement": "Effect of KS/CS-PG on Cell Migration", "setting": "[2]; [6]", "result": "−"},
      {"measurement": "Effect of KS/CS-PG on Cell Migration", "setting": "[2]; [7]", "result": "−"},
      {"measurement": "Effect of KS/CS-PG on Cell Migration", "setting": "[2]; [8]", "result": "−"},
      {"measurement": "Effect of KS/CS-PG on Cell Migration", "setting": "rat astrocytes (RAST); 0.12 mg/ml KS/CS-PG + LN stripes", "result": "+"},
      {"measurement": "Effect of KS/CS-PG on Cell Migration", "setting": "rat astrocytes (RAST); [5]", "result": "+/−"},
      {"measurement": "Effect of KS/CS-PG on Cell Migration", "setting": "rat astrocytes (RAST); [6]", "result": "+/−"},
      {"measurement": "Effect of KS/CS-PG on Cell Migration", "setting": "rat astrocytes (RAST); [7]", "result": "+/−"},
      {"measurement": "Effect of KS/CS-PG on Cell Migration", "setting": "rat astrocytes (RAST); [8]", "result": "−"},
      {"measurement": "Effect of KS/CS-PG on Cell Migration", "setting": "[3]; [5]", "result": "+"},
      {"measurement": "Effect of KS/CS-PG on Cell Migration", "setting": "[3]; [6]", "result": "+/−"},
      {"measurement": "Effect of KS/CS-PG on Cell Migration", "setting": "[3]; [7]", "result": "+/−"},
      {"measurement": "Effect of KS/CS-PG on Cell Migration", "setting": "[3]; [8]", "result": "+/−"},
      {"measurement": "Effect of KS/CS-PG on Cell Migration", "setting": "[4]; [5]", "result": "+"},
      {"measurement": "Effect of KS/CS-PG on Cell Migration", "setting": "[4]; [6]", "result": "+"},
      {"measurement": "Effect of KS/CS-PG on Cell Migration", "setting": "[4]; [7]", "result": "+"},
      {"measurement": "Effect of KS/CS-PG on Cell Migration", "setting": "[4]; [8]", "result": "+/−"}
    ]},
    {"substance": "dextran [reference compound]", "values": [
      {"measurement": "TOTAL SCORE 4 WEEKS", "setting": "[1]", "result": "10.0 ± 1.2"}
    ]},
    {"substance": "Dermatan sulfate proteoglycan [DS-PG]", "values": [
      {"measurement": "DS-PG Effect on Adhesion, Migration and Invasion", "setting": "[2]; [9]", "result": "+"},
      {"measurement": "DS-PG Effect on Adhesion, Migration and Invasion", "setting": "[2]; [10]", "result": "+/−"},
      {"measurement": "DS-PG Effect on Adhesion, Migration and Invasion", "setting": "[2]; [11]", "result": "−"},
      {"measurement": "DS-PG Effect on Adhesion, Migration and Invasion", "setting": "[2]; [12]", "result": "−"},
      {"measurement": "DS-PG Effect on Adhesion, Migration and Invasion", "setting": "rat astrocytes (RAST); [9]", "result": "+"},
      {"measurement": "DS-PG Effect on Adhesion, Migration and Invasion", "setting": "rat astrocytes (RAST); [10]", "result": "+/−"},
      {"measurement": "DS-PG Effect on Adhesion, Migration and Invasion", "setting": "rat astrocytes (RAST); [11]", "result": "+/−"},
      {"measurement": "DS-PG Effect on Adhesion, Migration and Invasion", "setting": "rat astrocytes (RAST); [12]", "result": "−"},
      {"measurement": "DS-PG Effect on Adhesion, Migration and Invasion", "setting": "[3]; [9]", "result": "+/−"},
      {"measurement": "DS-PG Effect on Adhesion, Migration and Invasion", "setting": "[3]; [10]", "result": "+/−"},
      {"measurement": "DS-PG Effect on Adhesion, Migration and Invasion", "setting": "[3]; [11]", "result": "−"},
      {"measurement": "DS-PG Effect on Adhesion, Migration and Invasion", "setting": "[3]; [12]", "result": "−"},
      {"measurement": "DS-PG Effect on Adhesion, Migration and Invasion", "setting": "[4]; [9]", "result": "+"},
      {"measurement": "DS-PG Effect on Adhesion, Migration and Invasion", "setting": "[4]; [10]", "result": "+"},
      {"measurement": "DS-PG Effect on Adhesion, Migration and Invasion", "setting": "[4]; [11]", "result": "−"},
      {"measurement": "DS-PG Effect on Adhesion, Migration and Invasion", "setting": "[4]; [12]", "result": "−"}
    ]}
  ]
}
